Measurements taken from publication PMC5655689, “Therapeutic potential of the phosphino Cu(I) complex (HydroCuP) in the treatment of solid tumors” (Scientific Reports, 2017).
“And” between values parts separate entries of the source, which are not always exact repeats. Equal values may be shown once.

Tests used:
[1] = system: Lewis Lung Carcinoma (LLC); experiment: In vivo antitumor activity towards Lewis Lung Carcinoma (LLC) implanted i.m. in C57BL mice; parameters: species or system mouse; details: for Average tumor weight (mean ± S.D., g) / Inhibition of tumor growth (%): day 15
Protocol: The schedule of HydroCuP administration in vivo was initially determined by assessing the total dose that could be injected without undue toxicity for different schedules in nontumor-bearing C57BL mice (data not shown). […] Three schedules of i.p. HydroCuP were administered: early treatment (days 3, 5, 7 and 9 after tumor inoculum), intermediate treatment (days 7–14) and late treatment with split-doses (days 9–11 with a loading dose and days 12–14 with a lower maintenance dose). […] Cisplatin treatment schedule was selected according to standard protocols designed to optimize its efficacy and minimize the occurrence of adverse events. For the early treatment, control mice received the vehicle (0.9% NaCl). HydroCuP was dosed at 25, 35 and 50 mg/kg i.p. on days 3, 5, 7, 9, 11 and 13 after tumor implantation. Cisplatin was dosed at 1.5 mg/kg i.p. on days 3, 5, 7, 9, 11 and 13 after tumor implantation.
The mice were purchased from Charles River, Italy, housed in steel cages under controlled environmental conditions (constant temperature, humidity, and 12 h dark/light cycle), and alimented with commercial standard feed and tap water ad libitum. The LLC cell line was purchased from ECACC, United Kingdom. The LLC cell line was maintained in DMEM (Euroclone, Pero, Italy) supplemented with 10% heat-inactivated foetal bovine serum (Euroclone, Pero, Italy), 10 mM L-glutamine, 100 U/mL penicillin, and 100 µg/mL streptomycin in a 5% CO2 air incubator at 37 °C. The LLC was implanted intramuscularly (i.m.) as a 2 × 10^6 cell inoculum into the right hind leg of 8-week old male and female C57BL mice (24 ± 3 g body weight). The antitumor activity of HydroCuP in LLC tumor model has been investigated by means of different schedules (early treatment, intermediate treatment and late treatment) and compared with that promoted by the reference metallodrug, CDDP. In the early-stage treatment, animals were treated at day 3, 5, 7, 9, 11 and 13 after the tumor cell inoculum with an i.p. injection of HydroCuP (25, 35 and 50 mg/kg), CDDP (1.5 mg/kg) or the vehicle solution (0.9% NaCl).
In the intermediate treatment, animals were treated after 7 days from tumor implantation (visible tumor) with daily i.p. doses of HydroCuP (30 and 50 mg/kg), CDDP (1.5 mg/kg) or the vehicle solution (0.9% NaCl). In the late treatment, animals were treated after 9 days from tumor implantation (palpable tumor) with i.p. doses of HydroCuP (50 mg/kg) from day 9 to day 11 and with i.p. doses of HydroCuP (30 mg/kg) from day 12 to day 14, or with daily doses of CDDP (1.5 mg/kg) or with the vehicle solution (0.9% NaCl). At day 15, animals were sacrificed, the legs were amputated at the proximal end of the femur, and the inhibition of tumor growth was determined according to the difference in weight of the tumor-bearing leg and the healthy leg of the animals expressed as a percentage referring to the control animals. Body weight was measured every 2 days and was taken as a parameter for systemic toxicity.

[2] = system: LoVo colorectal oxaliplatin-resistant xenograft; details: mouse, in vivo, ip, 30 mg/kg
Protocol: (§1) To this aim, we developed the OXP-sensitive and OXP-resistant LoVo xenografts in BALB/c nu/nu mice. […] OXP-sensitive or OXP-resistant LoVo cells (1 × 10^7) were injected in the flank of mice. Once tumor was established (tumor volumes of about 0.4 cm^3, around 14 days after tumor inoculation), mice were randomly divided into six groups (6 animals per group, 8 controls). The HydroCuP-treated groups (6 mice each group) received daily 30 mg/kg by i.p. injection and the OXP-treated group was given 2 mg/kg by i.p. injection. At day 30, animals were sacrificed, and the inhibition of tumor growth was determined (Fig. 4, panel A). Measurements of body weights were recorded from day 14 every 2 days until the experimental endpoint (Fig. 4, panel B).
(§2) (A) LoVo and LoVo-OXP tumor xenografts in 6-week-old BALB/c nu/nu mice by injecting 1 × 10^7 tumor cells subcutaneously on the left dorsal flank. After 24 h from tumor implantation, mice randomly divided into six groups (6 animals per group). Chemotherapy delayed until day 14 (tumor volumes of about 0.4 cm^3). From day 14, HydroCuP dosed daily at 30 mg/kg i.p., OXP dosed daily at 2 mg/kg i.p. At day 30, animals sacrificed, and the inhibition of tumor growth determined by comparing the volume of the control group and the treatment group expressed as percentage referred to the control animals. Error bars indicate the S.D. *p < 0.05, **p < 0.01, with respect to control. […] Body weight was measured every two days and was taken as a parameter of systemic toxicity. The error bars indicate the S.D. **P < 0.01; *P < 0.05.
(§3) LoVo and LoVo-OXP tumor xenografts were established in 6-week-old BALB/c nu/nu mice by injecting 1 × 10^7 tumor cells subcutaneously (100 μL in serum free medium) on the left dorsal flank. After 24 h from tumor implantation, mice were randomly divided into six groups (6 animals per group, 8 controls). Chemotherapy was delayed until the tumor was about 0.4 cm^3 (day 14). From day 14, HydroCuP was dosed daily at 30 mg/kg i.p. whereas OXP was dosed daily at 2 mg/kg i.p. Measurements of body weights and tumor volumes were recorded from day 14 every 2 days until the experimental endpoint. The long axis (L) and the short axis (S) were measured with callipers, and the tumor volume (V) was calculated using the following equation: V = SxSxL/2. At day 30, animals were sacrificed, and the inhibition of tumor growth was determined by comparing the volume of the control group and the treatment group expressed as percentage referred to the control animals.

[3] = system: 2D human cancer cell cultures; parameters: method as in PMID 18251492, PMID 21388518; details: cited from earlier work
[4] = system: DRG explants from 15 day-embryonic Sprague-Dawley rats; experiment: Neurotoxicity: neurite elongation in DRG explants; details: 48 h, DRG explants with NGF; OXP 5, 7.5, 10 μM; HydroCuP 5, 10, 20 μM
Protocol: To investigate the potential neurotoxic effect of HydroCuP, we employed a well-established in vitro model based on organotypic cultures of DRG from 15-day-old rat embryos. Neurite elongation under NGF influence was evaluated in DRG explants. […] For comparison purposes, the effect induced by the reference drugs OXP and CDDP was also tested.
OXP and HydroCuP toxicity at 48 h in DRG explants from 15 day-embryonic Sprague-Dawley rats. Representative images of neurite length in maturing DRG explants with different concentrations of OXP and HydroCuP (A). Bar: 500 µm.
DRG from E15 Sprague-Dawley rats (Envigo, San Pietro al Natisone, Italy) were aseptically removed and cultured onto a single layer of rat tail collagen surfaces in 35-mm dishes as previously described[36].
The DRG were incubated in AN2 medium [MEM added with 1.4 mM L-glutamine (Euroclone, Pero, Italy), 10% calf bovine serum (Hyclone, Thermo Scientific, Logan, UT) 50 µg/ml ascorbic acid, 0.6% glucose (Sigma-Aldrich) in the presence of 5 ng/ml nerve growth factor (NGF; Life Technologies, Monza, Italy) in a 5% CO2 humidified incubator at 37 °C.
To evaluate the neurotoxicity of HydroCuP and OXP, the DRG explants were treated for 2 h with NGF and subsequently exposed to each drug at different concentrations for 48 h. OXP was tested at 5, 7.5 and 10 μM while 5, 10 and 20 μM of HydroCuP was used. DRG treated with AN2 medium supplemented with 5 ng/ml NGF alone were used as controls. Phase-contrast micrographs were taken, and the length of the longest neurite in each DRG was measured by Image J (NIH, Bethesda, MD), using a standard calibration grating photographed at the same magnification. A compound is considered neurotoxic when the mean neurite elongation is reduced by 50% or more after drug exposure vs control.

[5] = parameters: method as in PMID 21388518, PMID 20486256; details: pH 7.4; cited from earlier work
26S proteasome = system: 26S proteasome; parameters: method as in PMID 21388518; details: cited from earlier work
[6] = system: LoVo human colon cancer spheroids; experiment: 3D spheroid cell viability, acid phosphatase (APH) assay, LoVo; type: cell-based; details: 72 h
Protocol: In order to improve the predictive capacity of the in vitro assays, we tested HydroCuP activity in two 3D cell cultures of human colon cancer cells, HCT-15 and LoVo. The colon cancer spheroids were treated with HydroCuP for 72 h and the cell viability was assessed by means of the acid phosphatase (APH) assay (Fig. 1, panel A).
Figure 1 Activity in 3D cell cultures. (A) Spheroids (2.5 × 10^3 cells/well) were treated for 72 h with increasing concentrations of tested compounds. The growth inhibitory effect was evaluated by means of APH test. IC50 values were calculated from the dose-survival curves by four parameter logistic model (P < 0.05). SD = standard deviation.
Spheroids were initiated in liquid overlay by seeding 2.5 × 10^3 HCT-15 and LoVo cells/well in phenol red-free RPMI-1640 medium (Sigma Chemical Co.), containing 10% FCS and supplemented with 20% methyl cellulose stock solution. A total of 150 μl of this cell suspension was transferred to each well of a round bottom non-tissue culture treated 96 well-plate (Greiner Bio-one, Kremsmünster, Austria) to allow spheroid formation within 72 h.
A modified APH assay, which is based on quantification of cytosolic acid phosphatase activity, was used for determining cell viability in spheroids. Briefly, the pre-seeded spheroids were treated with fresh medium containing the compound to be studied at the appropriate concentration (range 5–150 μM). Triplicate cultures were established for each treatment. After 72 h, each well was treated with 100 μL of the assay buffer (0.1 M sodium acetate, 0.1% Triton-X-100, supplemented with ImmunoPure p-nitrophenyl phosphate; Sigma Chemical Co.) and, following 3 h of incubation, 10 μL of 1 M NaOH solution were added. The inhibition of the cell growth induced by the tested complexes was detected by measuring the absorbance of each well at 405 nm, using a Bio-Rad 680 microplate reader. Mean absorbance for each drug dose was expressed as a percentage of the control untreated well absorbance (T/C) and plotted vs drug concentration. IC50 values, the drug concentrations that reduce the mean absorbance at 405 nm 50% of those in the untreated control wells, were calculated by four-parameter logistic (4-PL) model. Evaluation was based on means from at least four independent experiments.

[7] = system: LoVo colorectal oxaliplatin-sensitive xenograft; details: mouse, in vivo, ip, 30 mg/kg
Protocol: as §1, §2, §3

[8] = Early treatment, 35 mg/kg i.p. days 3, 5, 7, 9, 11, 13
[9] = Early treatment, 50 mg/kg i.p. days 3, 5, 7, 9, 11, 13

In the case of `F[P-](F)(F)(F)(F)F.OC[P+](CO)(CO)[Cu-3]([P+](CO)(CO)CO)([P+](CO)(CO)CO)[P+](CO)(CO)CO` [HydroCuP, [Cu(thp)4][PF6]], the “Average tumor weight (mean ± S.D., g)” value ([1]; Early treatment, 25 mg/kg i.p. days 3, 5, 7, 9, 11, 13) is reported as 0.473 ± 0.12 g, the “Inhibition of tumor growth (%)” value ([1]; Early treatment, 25 mg/kg i.p. days 3, 5, 7, 9, 11, 13, 25 mg/kg) is reported as 26% and 25.86% and the “Average tumor weight (mean ± S.D., g)” value [1, 8] is reported as 0.273 ± 0.04 g. For the same molecule, the “Inhibition of tumor growth (%)” value [1, 8] was 57.21%, the “Average tumor weight (mean ± S.D., g)” value [1, 9] was 0.113 ± 0.04 g and the “Inhibition of tumor growth (%)” value [1, 9] was 82.28%. The Body weight changes ([1]; Early treatment, LLC-bearing C57BL mice, 15 days) was “did not induce significant body weight loss”, the “Average tumor weight (mean ± S.D., g)” value ([1]; Intermediate treatment, 30 mg/kg daily i.p. day 7-14) was 0.088 ± 0.03 g and the “Inhibition of tumor growth (%)” value ([1]; Intermediate treatment, 30 mg/kg daily i.p. day 7-14, 30 mg/kg) was 82% and 82.37%. For the same molecule, the “Average tumor weight (mean ± S.D., g)” value ([1]; Intermediate treatment, 50 mg/kg daily i.p. day 7-14) was 0.071 ± 0.02 g, the “Inhibition of tumor growth (%)” value ([1]; Intermediate treatment, 50 mg/kg daily i.p. day 7-14, 50 mg/kg) was 85% and 85.85% and the Body weight loss ([1]; Intermediate treatment, LLC-bearing C57BL mice) was < 10%. The “Average tumor weight (mean ± S.D., g)” value ([1]; Late treatment, 50 mg/kg (days 9-11) then 30 mg/kg (days 12-14) daily i.p.) was 0.024 ± 0.03 g, the “Body weight changes / adverse effects” value ([1]; Late treatment, LLC-bearing C57BL mice) was “did not induce any adverse effects including significant body weight loss” and the “Body weight and health vs control group” value [2] was “No significant difference in body weight”. For the same molecule, the “Fold more cytotoxic than CDDP” value [3] was “up to 50”, the “Fold more cytotoxic than OXP” value [3] was ≤ 30 and the “Neurotoxic effect (neurite elongation)” value [4] was “no neurotoxic effect even at the highest concentrations”. The Water solubility [5] was > 2000 µg/mL, the “Effect on CT-L, T-L and C-L catalytic activities of 26S proteasome” value (26S proteasome) was “inhibit chymotrypsin-like (CT-L), trypsin-like (T-L) and caspase-like (C-L) catalytic activities of 26S proteasome” and the “IC50 fold lower than CDDP” value [6] was “about 2.5”. For the same molecule, the IC50 ([6]; APH test, read-out: IC50 (μM) ± SD LoVo) was 23.3 ± 3.2 µM and the “Body weight and health vs control group” value [7] was “No significant difference in body weight”.
